Reference: patent publication US20070134693A1, “Method for modulating the binding activity of a novel ICAM-3 binding receptor on sinusoidal endothelial cells in liver and lymph nodes” (priority 2000, published 2007)

Tests used:
Type in all cases: cell-based
DC-SIGN [1] = molecular target: T1, DC-SIGN (Homo sapiens, UniProt Q9NNX6); assay: Fluorescent beads adhesion assay, K562-DC-SIGN cells; details: for inhibition of adhesion of ICAM-3-coated fluorescent beads to DC-SIGN: FIG. 4A; for inhibition of adhesion of HIV-1 gp120-coated fluorescent beads to DC-SIGN: FIG. 4B
T1 construct: expressed in transfected cells
T1 sequence (Q9NNX6 1-404): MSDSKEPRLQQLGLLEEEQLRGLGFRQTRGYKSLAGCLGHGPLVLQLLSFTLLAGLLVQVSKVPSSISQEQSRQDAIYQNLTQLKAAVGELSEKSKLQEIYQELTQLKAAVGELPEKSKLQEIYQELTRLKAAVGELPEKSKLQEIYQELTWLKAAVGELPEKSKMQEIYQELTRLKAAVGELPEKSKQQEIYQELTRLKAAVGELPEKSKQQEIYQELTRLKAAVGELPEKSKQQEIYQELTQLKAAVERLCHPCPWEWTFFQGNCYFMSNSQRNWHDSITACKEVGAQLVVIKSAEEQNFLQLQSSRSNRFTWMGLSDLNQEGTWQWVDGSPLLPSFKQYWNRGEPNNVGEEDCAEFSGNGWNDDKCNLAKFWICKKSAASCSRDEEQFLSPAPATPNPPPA
Experimental: (§1) FIG. 4. L-SIGN binds ICAM-3 (A) and HIV-1 gp120 (B). Adhesion of ICAM-3 and gp120 to the K562-L-SIGN and K562-DC-SIGN cells was measured with the fluorescent bead adhesion assay (Geijtenbeek, T. B. et al., 1999, Blood 94:754-764). The y-axis represents the percent cells binding ligand-coated fluorescent beads. The L-SIGN-cross-reacting mAb AZN-D2 (20 μg/ml) and AZN-D3 (20 μg/ml) inhibit the adhesion of ICAM-3 and gp120 to L-SIGN, in contrast to the DC-SIGN-specific mAb AZN-D1 (20 μg/ml). […] Adhesion of both ligands to mock transfectants was less than 5%. One representative experiment out of three is shown (SD<5%).
(§2) Carboxylate-modified TransFluorSpheres (488/645 nm, 1.0 μm; Molecular Probes, Eugene, Oreg.) were coated with ICAM-3 as was previously described for ICAM-1 (Geijtenbeek, T. B. et al., 1999, Blood 94:754-764). Fluorescent beads were coated with M-tropic HIV-1MN envelope glycoprotein gp120 as follows: Streptavidin-coated fluorescent beads were incubated with biotinylated F(ab′)2 fragment rabbit anti-sheep IgG (6 μg/ml; Jackson Immunoresearch) followed by an overnight incubation with sheep-anti-gp120 antibody D7324 (Aalto Bio Reagents Ltd, Dublin, Ireland) at 4° C. The beads were washed and incubated with 250 ng/ml purified HIV-1 gp120 (provided by Immunodiagnostics, Inc through the NIH AIDS Research and Reference Reagent Program) overnight at 4° C.
(§3) The fluorescent beads adhesion assay was performed as described by Geijtenbeek et al.(l999, supra). Briefly, cells were resuspended in adhesion buffer (20 mM Tris-HCl pH 8.0, 150 mM NaCl, 1 mM CaCl2, 2 mM MgCl2, 0.5% BSA) at a final concentration of 5×10^6 cells/ml. 50,000 cells were pre-incubated with mAb (20 μg/ml) for 10 min at room temperature. Ligand-coated fluorescent beads (20 beads/cell) were added and the suspension was incubated for 30 min at 37° C. Adhesion was determined by measuring the percentage of cells that bound fluorescent beads using flow cytometry on a FACScan (Becton Dickinson, Oxnard, Calif.).

L-SIGN [2] = molecular target: T2, L-SIGN (Homo sapiens, UniProt Q9H2X3); assay: Fluorescent beads adhesion assay, K562-L-SIGN cells; details: for inhibition of adhesion of ICAM-3-coated fluorescent beads to L-SIGN: FIG. 4A; for inhibition of adhesion of HIV-1 gp120-coated fluorescent beads to L-SIGN: FIG. 4B
T2 construct: The L-SIGN cDNA clone isolated from placental mRNA contained the entire coding region of the gene; expressed in transfected cells
T2 sequence (Q9H2X3 1-376 isoform Q9H2X3-8): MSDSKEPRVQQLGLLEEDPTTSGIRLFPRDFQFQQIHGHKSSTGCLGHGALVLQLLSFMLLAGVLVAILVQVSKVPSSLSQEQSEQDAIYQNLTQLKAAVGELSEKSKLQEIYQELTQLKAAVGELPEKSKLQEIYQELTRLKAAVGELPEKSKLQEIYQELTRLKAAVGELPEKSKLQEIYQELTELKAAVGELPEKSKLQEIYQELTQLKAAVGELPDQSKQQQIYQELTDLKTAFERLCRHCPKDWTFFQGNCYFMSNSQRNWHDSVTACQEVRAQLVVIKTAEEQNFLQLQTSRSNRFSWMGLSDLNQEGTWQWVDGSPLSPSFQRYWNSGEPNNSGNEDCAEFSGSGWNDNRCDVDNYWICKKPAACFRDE
Experimental: as §1, §2, §3

DC-SIGN [3] = molecular target: T1, DC-SIGN; assay: HIV-1 enhancement assay, pseudotyped HIV-1 ADA, HEK293T cells expressing DC-SIGN co-cultured with activated T cells; details: preincubation 20 μg/ml, after two days, FIG. 5B
Experimental: (§4) FIG. 5. L-SIGN captures and enhances infection of T cells with HIV-1 in trans. (A) L-SIGN captures HIV-1 and transmits it to target cells. Stable DC-SIGN or L-SIGN expressing THP-1 transfectants were pre-incubated with HIV-luc/JRFL pseudovirions to allow capture of the virus. Cells were washed and THP-1 transfectants were co-cultured with Hut/CCR5 target cells. Cell lysates were obtained after 3 days and analyzed for luciferase activity. For each of the co-culture conditions employed, mock infected controls were uniformly less than 100 counts per second in activity. Each data set represents the mean of four separate wells of infected cells. One representative experiment out of two is shown. […] Infectivity was determined after two days by measuring luciferase activity. […] Culture supernatants were collected at day 14 after K562-T cell co-culture and HIV-1 production was measured using ELISA to determine p24 antigen levels. […]
(§5) The infection assays were performed as described previously (Geijtenbeek, 2000a, supra; Geijtenbeek 2000b, supra). […] Viral stocks were evaluated by limiting dilution on GHOST CXCR4/CCR5 and 293T-CD4-CCR5 cells.
(§6) In contrast, HIV-1 enhancement assays utilized suboptimal concentrations of virus (typically <0.05 m.o.i.) without a wash step. […] Cell lysates were obtained after several days and analyzed for either luciferase activity or p24 antigen levels. […]

L-SIGN [4] = molecular target: T2, L-SIGN; assay: HIV-1 enhancement assay, pseudotyped HIV-1 ADA, HEK293T cells expressing L-SIGN co-cultured with activated T cells; details: preincubation 20 μg/ml, after two days, FIG. 5B
Experimental: as §4, §5, §6

Row | Compound | inhibition of adhesion of ICAM-3-coated fluorescent beads to DC-SIGN (DC-SIGN [1]; 5 mM) | inhibition of adhesion of HIV-1 gp120-coated fluorescent beads to DC-SIGN (DC-SIGN [1]; 5 mM) | inhibition of adhesion of ICAM-3-coated fluorescent beads to L-SIGN (L-SIGN [2]; 5 mM) | inhibition of adhesion of HIV-1 gp120-coated fluorescent beads to L-SIGN (L-SIGN [2]; 5 mM) | inhibition of adhesion of ICAM-3-coated fluorescent beads to DC-SIGN (DC-SIGN [1]; 20 μg/ml) | inhibition of adhesion of HIV-1 gp120-coated fluorescent beads to DC-SIGN (DC-SIGN [1]; 20 μg/ml) | inhibition of DC-SIGN-mediated enhancement of HIV-1 infection of T cells in trans (luciferase activity) (DC-SIGN [3]) | inhibition of L-SIGN-mediated enhancement of HIV-1 infection of T cells in trans (luciferase activity) (L-SIGN [4]) | inhibition of adhesion of ICAM-3-coated fluorescent beads to L-SIGN (L-SIGN [2]; 20 μg/ml) | inhibition of adhesion of HIV-1 gp120-coated fluorescent beads to L-SIGN (L-SIGN [2]; 20 μg/ml)
1 | O=C(O)CN(CCOCCOCCN(CC(=O)O)CC(=O)O)CC(=O)O [EGTA] | inhibited | inhibited | inhibited | inhibited |  |  |  |  |  | 
2 | mannan |  |  |  |  | inhibited | inhibited | efficiently inhibited | efficiently inhibited | inhibited | inhibited
